From patent publication US20230399312A1, “SUBSTITUTED PYRIMIDINES AND METHODS OF USE” (THERAVANCE BIOPHARMA R&D IP, LLC, priority 2020, published 2023) come the findings set out here.

Structures are written as SMILES.

The target of test [1] is T1, recombinant human ALK5 (TGF-βR1) protein (Homo sapiens, UniProt P36897).
T1 construct: purchased Life Technologies PR9075A
T1 sequence (P36897 34-503): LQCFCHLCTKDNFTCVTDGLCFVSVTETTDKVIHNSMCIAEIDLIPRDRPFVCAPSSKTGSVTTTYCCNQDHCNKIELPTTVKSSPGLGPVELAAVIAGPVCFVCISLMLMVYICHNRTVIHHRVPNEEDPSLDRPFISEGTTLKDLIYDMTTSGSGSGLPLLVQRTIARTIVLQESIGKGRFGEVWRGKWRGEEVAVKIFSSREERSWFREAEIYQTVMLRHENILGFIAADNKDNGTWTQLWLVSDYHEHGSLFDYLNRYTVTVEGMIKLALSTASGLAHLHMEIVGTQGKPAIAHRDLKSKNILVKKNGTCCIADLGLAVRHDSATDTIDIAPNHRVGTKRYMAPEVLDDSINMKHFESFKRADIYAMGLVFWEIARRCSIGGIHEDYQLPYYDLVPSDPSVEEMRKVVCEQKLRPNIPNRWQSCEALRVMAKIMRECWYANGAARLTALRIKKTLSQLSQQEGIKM
The experiment in a line: Biochemical ALK5 (TGF-βR1) assay to measure pKi (LANCE Ultra ULight kinase assay). Particulars: apparent pKi, converted from pIC50 by Cheng-Prusoff. Summed up:
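Cmpd + enzyme, 60 min RT; ATP from 125 μM (5×) stock, 60 min 37 °C; stop 12 mM EDTA/Eu anti-pThr1342 Topo2α Ab (pH 7.0 buffer); TR-FRET 665 nm. DMSO = max, SD-208 = min signal. 4-PL pIC50 → pKi (Cheng-Prusoff).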
In general terms: Time-resolved FRET reads energy transfer from a long-lived donor to a nearby acceptor.

Test [2] relates to TGF-β-stimulated SMAD3 phosphorylation in BEAS-2B cells. In words: Cellular ALK5 potency assay, inhibition of TGF-β stimulated pSMAD3 formation in BEAS-2B cells. In kind it is cell-based. The note with it: Homo sapiens, pSMAD3, TGF-β 10 ng/mL, read-out: BEAS2B pIC50 (converted). The essentials:
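Human lung epithelial BEAS-2B cells were preincubated 1 h at 37 °C with compound in HBSS/HEPES/1% BSA, then stimulated 30 min with 10 ng/mL TGF-β. pSMAD3 in lysates was quantified by AlphaLISA relative to untreated stimulated cells; reported as pIC50.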

Consider `CNC(=O)[C@H]1CN(Cc2ccc(Nc3nccc(Nc4ccnc(-c5cccc(C)n5)n4)n3)cc2)CCN1` [Compound 293, (2R)-N-methyl-4-[[4-[[4-[[2-(6-methyl-2-pyridyl)pyrimidin-4-yl]amino]pyrimidin-2-yl]amino]phenyl]methyl] piperazine-2-carboxamide], for which the Ki in test [1] is 0.0398 to 0.316 nM. Also, in test [2], the IC50 is 25.1 to 158 nM.
As for `CNC(=O)[C@@H]1CN(Cc2ccc(Nc3nccc(Nc4ccnc(-c5cccc(C)n5)n4)n3)cc2)CCN1` [Compound 271, (2S)-N-methyl-4-[[4-[[4-[[2-(6-methyl-2-pyridyl)pyrimidin-4-yl]amino]pyrimidin-2-yl]amino]phenyl]methyl] piperazine-2-carboxamide], in test [1], the Ki is 0.0398 to 0.316 nM. The IC50 in test [2] is 25.1 to 158 nM.
In the same order, the values of `Cc1cccc(-c2nccc(Nc3ccnc(Nc4csc(C(=O)OC5CCNCC5)c4)n3)n2)n1` [Compound 591, 4-piperidyl 4-[[4-[[2-(6-methyl-2-pyridyl)pyrimidin-4-yl]amino]pyrimidin-2-yl]amino]thiophene-2-carboxylate] are 0.0398 to 0.316 nM and 25.1 to 158 nM.
In the same order, the values of `Cc1cccc(-c2nccc(Nc3ccnc(Nc4ccc(C)c(NC(=O)C5CCNCC5)c4)n3)n2)n1` [Compound 128, N-[2-methyl-5-[[4-[[2-(6-methyl-2-pyridyl)pyrimidin-4-yl]amino]pyrimidin-2-yl]amino]phenyl]piperidine-4-carboxamide] are 0.0398 to 0.316 nM and at most 20 nM.
In the same order, the values of `Cc1cccc(-c2nccc(Nc3ccnc(Nc4ccc(CN5CC6(CCOC6)C5)cc4)n3)n2)n1` [Compound 372, N4-[2-(6-methyl-2-pyridyl)pyrimidin-4-yl]-N2-[4-(6-oxa-2-azaspiro[3.4]octan-2-ylmethyl)phenyl]pyrimidine-2,4-diamine] are 0.0398 to 0.316 nM and 25.1 to 158 nM.
For the molecule `Cc1cccc(-c2nc(CC(=O)NCC(C)C)cc(Nc3ccnc(Nc4ccc(N5CCNCC5)cc4)n3)n2)n1` [Compound 1009, N-isobutyl-2-[2-(6-methyl-2-pyridyl)-6-[[2-(4-piperazin-1-ylanilino)pyrimidin-4-yl]amino]pyrimidin-4-yl] acetamide], in test [1], the Ki is 0.398 to 3.16 nM. Further, the IC50 in test [2] was 200 to 1260 nM.
In the same order, the values of `Cc1cccc(-c2nccc(Nc3ccnc(Nc4ccc(N5CCC(CNCC(C)C)CC5)cc4)n3)n2)n1` [Compound 525, N2-[4-[4-[(isobutylamino)methyl]-1-piperidyl]phenyl]-N4-[2-(6-methyl-2-pyridyl)pyrimidin-4-yl]pyrimidine-2,4-diamine] are 0.398 to 3.16 nM and 25.1 to 158 nM.
Take `Cc1cccc(-c2nccc(Nc3ccnc(Nc4ccc(NC(=O)C5CNC5)cc4)n3)n2)n1` [Compound 76, N-[4-[[4-[[2-(6-methyl-2-pyridyl)pyrimidin-4-yl]amino]pyrimidin-2-yl]amino]phenyl]azetidine-3-carboxamide]: the Ki in test [1] is 0.0398 to 0.316 nM. Besides, the IC50 in test [2] was at most 20 nM.
In the same order, the values of `Cc1cccc(-c2nccc(Nc3ccnc(Nc4ccc(NC(=O)C5CCN(C6CCNC6)CC5)cc4)n3)n2)n1` (stereo not shown) [Compound 465, N-[4-[[4-[[2-(6-methyl-2-pyridyl)pyrimidin-4-yl]amino]pyrimidin-2-yl]amino]phenyl]-1-pyrrolidin-3-yl-piperidine-4-carboxamide] are 0.0398 to 0.316 nM and at most 20 nM.
For `Cc1cccc(-c2nccc(Nc3ccnc(Nc4ccc(CN5CC6CCC(C5)O6)cc4)n3)n2)n1` [Compound 395, N4-[2-(6-methyl-2-pyridyl)pyrimidin-4-yl]-N2-[4-(8-oxa-3-azabicyclo[3.2.1]octan-3-ylmethyl)phenyl]pyrimidine-2,4-diamine], the Ki in test [1] was 0.0398 to 0.316 nM. In addition, the IC50 in test [2] was 25.1 to 158 nM.
The corresponding values for `Cc1cccc(-c2nccc(Nc3ccnc(Nc4ccc(N5CCN(Cc6ccccc6)CC5)cc4)n3)n2)n1` [Compound 27, N2-[4-(4-benzylpiperazin-1-yl)phenyl]-N4-[2-(6-methyl-2-pyridyl)pyrimidin-4-yl]pyrimidine-2,4-diamine] are 0.0398 to 0.316 nM and 25.1 to 158 nM.
Regarding `Fc1ccc(Cl)cc1-c1nccc(Nc2ccnc(Nc3ccc(N4CCNCC4)cc3)n2)n1` [Compound 398, N4-[2-(5-chloro-2-fluoro-phenyl)pyrimidin-4-yl]-N2-(4-piperazin-1-ylphenyl)pyrimidine-2,4-diamine], the Ki in test [1] is 0.0398 to 0.316 nM. Besides, the IC50 in test [2] was 25.1 to 158 nM.
With `Cc1cccc(-c2nccc(Nc3ccnc(Nc4cccc(S(=O)(=O)N(C)C5CCNCC5)c4)n3)n2)n1` [Compound 87, N-methyl-3-[[4-[[2-(6-methyl-2-pyridyl)pyrimidin-4-yl]amino]pyrimidin-2-yl]amino]-N-(4-piperidyl)benzenesulfonamide], the Ki in test [1] was 3.98 to 31.6 nM. In addition, in test [2], the IC50 is 200 to 1260 nM.
The corresponding values for `COc1cc(Nc2nccc(Nc3ccnc(-c4cccc(C)n4)n3)n2)ccc1CN1C[C@@H](C)N[C@@H](C)C1` [Compound 335, N2-[3-methoxy-4-[[rac-(3S,5R)-3,5-dimethylpiperazin-1-yl]methyl]phenyl]-N4-[2-(6-methyl-2-pyridyl)pyrimidin-4-yl]pyrimidine-2,4-diamine] are 0.0398 to 0.316 nM and 25.1 to 158 nM.
For the molecule `COC1CN(Cc2ccc(Nc3nccc(Nc4ccnc(-c5cccc(C)n5)n4)n3)cc2)C1` [Compound 127, N2-[4-[(3-methoxyazetidin-1-yl)methyl]phenyl]-N4-[2-(6-methyl-2-pyridyl)pyrimidin-4-yl]pyrimidine-2,4-diamine], the Ki in test [1] was 0.0398 to 0.316 nM. Also, the IC50 in test [2] was 25.1 to 158 nM.
In the same order, the values of `Cc1cccc(-c2nccc(Nc3ccnc(Nc4ccc(N5CCCC(C(=O)O[C@H]6CCNC6)C5)cc4)n3)n2)n1` (stereo partly drawn) [Compound 144, [(3S)-pyrrolidin-3-yl] 1-[4-[[4-[[2-(6-methyl-2-pyridyl)pyrimidin-4-yl]amino]pyrimidin-2-yl]amino]phenyl]piperidine-3-carboxylate] are at most 0.0316 nM and 25.1 to 158 nM.
In the same order, the values of `Cc1cccc(-c2nccc(Nc3ccnc(Nc4ccc(S(=O)(=O)N5CCN(C6CC6)CC5)cc4)n3)n2)n1` [Compound 527, N2-[4-(4-cyclopropylpiperazin-1-yl)sulfonylphenyl]-N4-[2-(6-methyl-2-pyridyl)pyrimidin-4-yl]pyrimidine-2,4-diamine] are 0.398 to 3.16 nM and 25.1 to 158 nM.
The corresponding values for `Cc1cccc(-c2nccc(Nc3ccnc(Nc4cccc(NC(=O)C5(O)CCNC5)c4)n3)n2)n1` (stereo not shown) [Compound 203, 3-hydroxy-N-[3-[[4-[[2-(6-methyl-2-pyridyl)pyrimidin-4-yl]amino]pyrimidin-2-yl]amino]phenyl]pyrrolidine-3-carboxamide] are 0.0398 to 0.316 nM and at most 20 nM.
As to `COC(=O)CC1CN(Cc2cccc(Nc3nccc(Nc4ccnc(-c5cccc(C)n5)n4)n3)c2)CCN1` (stereo not shown) [Compound 411, methyl 2-[4-[[3-[[4-[[2-(6-methyl-2-pyridyl)pyrimidin-4-yl]amino]pyrimidin-2-yl]amino]phenyl]methyl]piperazin-2-yl]acetate], the Ki in test [1] was 0.0398 to 0.316 nM. For the same molecule, in test [2], the IC50 is 25.1 to 158 nM.
On to `Cc1cccc(-c2nccc(Nc3ccnc(Nc4ccc(NC(=O)C5CCN(C)CC5)cc4)n3)n2)n1` [Compound 150, 1-methyl-N-[4-[[4-[[2-(6-methyl-2-pyridyl)pyrimidin-4-yl]amino]pyrimidin-2-yl]amino]phenyl]piperidine-4-carboxamide], for which, in test [1], the Ki is 0.0398 to 0.316 nM. The IC50 in test [2] was 25.1 to 158 nM.
